Consider 16 compounds from ChEMBL document CHEMBL1129591 (J Med Chem, 1996).

Assay [1] addresses T1, 5-hydroxytryptamine receptor 1A (Homo sapiens, UniProt P08908).
T1 sequence (P08908 whole entry): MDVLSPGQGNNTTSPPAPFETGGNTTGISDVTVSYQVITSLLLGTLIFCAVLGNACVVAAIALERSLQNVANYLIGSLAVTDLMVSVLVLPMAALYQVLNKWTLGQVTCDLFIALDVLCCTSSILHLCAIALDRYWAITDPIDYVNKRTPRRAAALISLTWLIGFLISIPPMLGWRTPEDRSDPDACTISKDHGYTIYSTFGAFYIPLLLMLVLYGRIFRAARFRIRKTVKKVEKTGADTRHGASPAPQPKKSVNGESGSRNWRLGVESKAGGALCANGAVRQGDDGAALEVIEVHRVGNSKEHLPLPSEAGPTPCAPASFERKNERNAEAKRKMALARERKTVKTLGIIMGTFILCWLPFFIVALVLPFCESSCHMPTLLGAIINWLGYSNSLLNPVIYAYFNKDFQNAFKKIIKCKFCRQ
Briefly: Ability to inhibit the forskolin-stimulated c-AMP formation mediated by human 5-hydroxytryptamine 1A receptor in CHO-K1 cells. In kind it is functional, cell-based.

The target in assay [2] is T2, 5-hydroxytryptamine receptor 1B (Homo sapiens, UniProt P28222). Briefly: Inhibition of forskolin-stimulated c-AMP formation by human 5-hydroxytryptamine 1B receptor expressed in CHO-K1 cells. The format is functional, cell-based.
T2 sequence (P28222 whole entry): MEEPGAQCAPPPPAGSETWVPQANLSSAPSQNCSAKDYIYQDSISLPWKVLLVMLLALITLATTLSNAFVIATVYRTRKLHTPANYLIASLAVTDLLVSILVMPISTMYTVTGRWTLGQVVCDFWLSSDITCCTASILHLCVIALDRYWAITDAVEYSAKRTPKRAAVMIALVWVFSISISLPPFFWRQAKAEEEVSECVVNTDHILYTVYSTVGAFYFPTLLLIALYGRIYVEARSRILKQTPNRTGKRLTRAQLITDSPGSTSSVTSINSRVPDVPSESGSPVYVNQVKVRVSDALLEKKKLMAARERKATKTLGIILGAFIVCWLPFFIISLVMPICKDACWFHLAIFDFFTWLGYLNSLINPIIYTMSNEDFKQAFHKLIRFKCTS
Assay [3] concerns the target 5-hydroxytryptamine receptor 1D (Homo sapiens, UniProt P28221). Briefly: Binding affinity at cloned human 5-hydroxytryptamine 1D receptor.
Assay [4] has as its target T2, 5-hydroxytryptamine receptor 1B. Briefly: Ability to inhibit the forskolin-stimulated c-AMP formation mediated by human 5-hydroxytryptamine 1B receptor in CHO-K1 cells. The format is functional, cell-based.

Sequence of 5-hydroxytryptamine receptor 1D (P28221 whole entry): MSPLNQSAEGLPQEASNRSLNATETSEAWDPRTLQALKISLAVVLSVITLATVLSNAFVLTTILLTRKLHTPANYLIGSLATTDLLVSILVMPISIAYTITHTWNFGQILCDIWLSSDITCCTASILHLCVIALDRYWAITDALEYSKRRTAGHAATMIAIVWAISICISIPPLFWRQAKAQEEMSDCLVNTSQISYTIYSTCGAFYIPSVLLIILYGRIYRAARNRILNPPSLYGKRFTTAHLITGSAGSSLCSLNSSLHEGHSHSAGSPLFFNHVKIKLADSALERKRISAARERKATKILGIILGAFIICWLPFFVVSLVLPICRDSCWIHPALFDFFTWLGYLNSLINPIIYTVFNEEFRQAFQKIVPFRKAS

Regarding `NCCc1c[nH]c2ccc(OCC(=O)NCCCNC(=O)COc3ccc4[nH]cc(CCN)c4c3)cc12`, the figures for the Ki in assay [1], in assay [3] and in assay [4] were 8.6 nM, 0.3 nM and 0.3 nM, respectively. The same compound returned an EC50 in assay [2] of 0.09 nM.
On to `NCCc1c[nH]c2ccc(OCCNC(=O)NCCOc3ccc4[nH]cc(CCN)c4c3)cc12`, for which the figures for the Ki in assay [1], in assay [3] and in assay [4] were 2.2 nM, 0.4 nM and 0.2 nM, respectively. In assay [2], this compound registered a concentration giving a half-maximal response (EC50) of 1.6 nM.
The corresponding values for `NCCc1c[nH]c2ccc(OCC(=O)N3CCC(C4CCN(C(=O)COc5ccc6[nH]cc(CCN)c6c5)CC4)CC3)cc12` are 4 nM, 0.27 nM, 0.22 nM and 0.26 nM.
On to `NCCc1c[nH]c2ccc(OCc3ccccc3COc3ccc4[nH]cc(CCN)c4c3)cc12`, for which the Ki in assay [1] stood at 4.3 nM; in assay [3] it was 1.5 nM; in assay [4], 1.7 nM. The compound further yielded an EC50 in assay [2] of 2.07 nM.
On the same counts, the results for `NCCc1c[nH]c2ccc(OCCNC(=O)COc3ccc4[nH]cc(CCN)c4c3)cc12` are 2.2 nM, 0.18 nM, 0.16 nM and 0.44 nM.
`NCCc1c[nH]c2ccc(OCC(=O)N3CCN(C(=O)COc4ccc5[nH]cc(CCN)c5c4)CC3)cc12`: the Ki is 20 nM in assay [1], 0.42 nM in assay [3] and 0.36 nM in assay [4]. Besides, a half-maximal effect in assay [2] (EC50) was put at 0.28 nM.
On the same counts, the results for `NCCc1c[nH]c2ccc(OCC(=O)Nc3ccc(N4CCN(C(=O)COc5ccc6[nH]cc(CCN)c6c5)CC4)cc3)cc12` are 9.8 nM, 0.09 nM, 0.14 nM and 0.4 nM.
With `NCCc1c[nH]c2ccc(OCc3ccc(COc4ccc5[nH]cc(CCN)c5c4)cc3)cc12`, the Ki in assay [1] worked out at 1.6 nM; in assay [3], 0.11 nM; in assay [4], 0.1 nM. Moreover, in assay [2], a half-maximal effect (EC50) was put at 3 nM.
Consider `NCCc1c[nH]c2ccc(OCCN3CCN(CCOc4ccc5[nH]cc(CCN)c5c4)CC3)cc12`, for which the Ki in assay [1] was found to be 9.5 nM; in assay [3], 0.35 nM; in assay [4], 0.26 nM. Further, the response in assay [2] was half-maximal at 0.19 nM (EC50).
The corresponding values for `NCCc1c[nH]c2ccc(OCC(=O)Nc3ccc(NC(=O)COc4ccc5[nH]cc(CCN)c5c4)cc3)cc12` are 4.06 nM, 0.11 nM, 0.27 nM and 0.3 nM.
On the same counts, the results for `NCCc1c[nH]c2ccc(OCCCCCCNS(=O)(=O)c3ccc(-c4ccc(S(=O)(=O)NCCCCCCOc5ccc6[nH]cc(CCN)c6c5)cc4)cc3)cc12` are 1.66 nM, 0.45 nM, 0.38 nM and 0.1 nM.
The corresponding values for `NCCc1c[nH]c2ccc(OCCOc3ccc4[nH]cc(CCN)c4c3)cc12` are 14.3 nM, 1 nM, 2.5 nM and 4 nM.
On to `NCCc1c[nH]c2ccc(OCC(=O)N3CCNCC3)cc12`, for which the Ki in assay [1], in assay [3] and in assay [4] was greater than 100 nM throughout.
With `NCCc1c[nH]c2ccc(OCCN3CCN(C(=O)COc4ccc5[nH]cc(CCN)c5c4)CC3)cc12`, the Ki in assay [1] worked out at 9.5 nM; in assay [3], 0.16 nM; in assay [4] it was 0.11 nM. Further, the EC50 in assay [2] was found to be 0.22 nM.
Regarding `NCCc1c[nH]c2ccc(OCc3cccc(COc4ccc5[nH]cc(CCN)c5c4)c3)cc12`, the Ki was determined as 1 nM in assay [1], 0.35 nM in assay [3] and 0.32 nM in assay [4]. The compound also had an EC50 in assay [2] of 0.85 nM.
As for `NCCc1c[nH]c2ccc(OCCCCCCOc3ccc4[nH]cc(CCN)c4c3)cc12`, the Ki turned out to be 1.8 nM in assay [1], 0.46 nM in assay [3] and 0.5 nM in assay [4]. In assay [2], this compound showed a concentration for a half-maximal effect (EC50) of 0.6 nM.
